Where no end group is shown, it is not given here.
System: Male C57BL/6 mice
Experiment: Food intake in mice after a single intravenous injection of urocortin derivatives
Type: in vivo
Experimental: The potency of several modified urocortin derivatives were determined by measuring food intake in mice. A study was performed with native human urocortin 1, 2 and 3 to select a dose and to determine whether the IV route was adequate for native peptides. Following the initial study, two additional studies were performed in which the effect of modified derivatives and native peptides were compared.
Male C57BL/6 mice (22-26g) were housed 3 per cage and fed with standard chow. The night before dosing, mice were food restricted i.e., they were given only half of the amount of food ingested during the previous night. Dosing was performed between 9 and 10 a.m. Mice received a single intravenous injection (5 ml/kg via the tail vein) of saline or urocortin derivatives diluted in saline. Food intake was measured by placing preweighed pellets in the cage and weighing the uneaten pellets at 1, 2, 4, 6, 24 and 48 hours postdose.

[1] = Study No. 2, FIG. 3, (Ucn II and III derivatives)
[2] = Study No. 2, FIG. 3, 20 nmol/kg (Ucn I derivatives)

Substance: IVLSLDVPIGLLQILLEQARARAAREQATTNARILARVGHC-NH2 (IVLSLDVPIGLLQILLEQARARAAREQATTNARILARVGHC-NH2; listed as Homo sapiens) [SEQ ID No. 92]
- food intake in the 1-2 h time period versus control (Study No. 1, FIG. 1, 85 nmol/kg, 1-2 h postdose): back to the control
- time over which food intake was reduced/inhibited postdose (Study No. 1, FIG. 1, normal mice, 85 nmol/kg): up to 1 hour
- cumulative food intake versus saline control (Study No. 1, FIG. 2, 85 nmol/kg, at 6 hours postdose): still lower than the saline control

Substance: IVLSLDVPIGLLQILLEQARAK-(ε-AEEA-MPA) AAR EQATT NARIL ARV-NH2 (IVLSLDVPIGLLQILLEQARAKAAREQATTNARILARV; Lys-AEEA-MPA, C-terminal amide) [SEQ ID No. 83, Modified peptide of human urocortin 2]
- inhibition of food intake as compared to the control group (Study No. 1, FIG. 1, 85 nmol/kg, 4-6 hour time interval): 50%
- duration of activity on food intake compared with the other tested compounds [1]: most prolonged activity

Substance: FTLSL DVPTN IMNLL FNIAK(ε-AEEA-MPA) ARNLR AQAAA NAHLM AQI-NH2 (FTLSLDVPTNIMNLLFNIAKARNLRAQAAANAHLMAQI; Lys-AEEA-MPA, C-terminal amide) [SEQ ID No. 85, Modified peptide of human urocortin 3]
- 'rebound' of food intake as compared to the control [1]: increase of food intake as compared to the control

Substance: DNPSLSIDLTFHLLRTLLELARTQSQRERAEQNRIIFDSV-NH2 (DNPSLSIDLTFHLLRTLLELARTQSQRERAEQNRIIFDSV-NH2; listed as Homo sapiens) [human urocortin 1, Human Urocortin 1 (40 Amino-acids), native peptide]
- time up to which food intake was reduced [2]: up to 4 hours

Substance: DNPSLSIDLTFHLLRTLLELAK-(ε-AEEA-MPA)TQS QRERA EQNRI IFDSV-NH2 (DNPSLSIDLTFHLLRTLLELAKTQSQRERAEQNRIIFDSV; Lys-AEEA-MPA, C-terminal amide) [SEQ ID No. 80, Modified peptide of human urocortin 1]
- 'rebound' of food intake as compared to the control [2]: increase of food intake as compared to the control

Substance: FTLSLDVPTNIMNLLFNIAKAKNLRAQAAANAHLMAQI-NH2 (FTLSLDVPTNIMNLLFNIAKAKNLRAQAAANAHLMAQI-NH2; listed as Homo sapiens) [Urocortin III, Human Urocortin 3 (38 Amino-acids), native peptide]
- 'rebound' of food intake as compared to the control [1]: increase of food intake as compared to the control
- activity on food intake versus the free peptide [1]: much less active than the free peptide
- period of decreased food intake [1]: decreased food intake during the first hour after injection only

Reference: patent US7982018B2, “Modified corticotropin releasing factor peptides and uses thereof” (Conjuchem, LLC, priority 2006, dated 2011)
